The values below are quoted from earlier work in patent publication US20040167185A1, “Methods of treating conditions associated with an Edg-3 receptor” (priority 2003, published 2004).

Where a name gives a salt, the structure may show the parent alone.

A word on the Kd: it is the free concentration of one partner at which half of the binding sites on the other are occupied at equilibrium, for simple one-to-one binding.

One data set addresses T1, Angiotensin AT2 (Homo sapiens, UniProt P50052).
T1 construct: expressed in transfected cells; host or cells: Hela cells
T1 sequence (P50052 1-363): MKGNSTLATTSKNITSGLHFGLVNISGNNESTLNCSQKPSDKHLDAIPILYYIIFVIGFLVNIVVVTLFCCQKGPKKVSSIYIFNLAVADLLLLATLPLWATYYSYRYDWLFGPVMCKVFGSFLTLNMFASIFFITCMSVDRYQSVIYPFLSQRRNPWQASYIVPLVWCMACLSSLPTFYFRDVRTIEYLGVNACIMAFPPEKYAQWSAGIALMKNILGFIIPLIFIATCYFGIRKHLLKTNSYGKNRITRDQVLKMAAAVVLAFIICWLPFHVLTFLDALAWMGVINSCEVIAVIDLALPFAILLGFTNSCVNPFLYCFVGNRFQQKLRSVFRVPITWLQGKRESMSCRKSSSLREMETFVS
The note with it: Kd of the radioligand; Human recombinant Hela cells; historical value.

Data set [1] has as its target Adrenergic α1, non-selective.
The target in the next data set is Adrenergic β. The note with it: Kd of the radioligand; Wistar rat brain; historical value.
In data set [2] the target is Serotonin 5-HT1, non-selective. The note with it: Kd of the radioligand; Wistar rat cerebral cortex; historical value.

On to CGP-42112A [^125I CGP-42112A], for which, at Angiotensin AT2, the Kd is 0.012 nM.

Consider `COc1cc2nc(N3CCN(C(=O)c4ccco4)CC3)nc(N)c2cc1OC` [^3H Prazosin, Prazosin], for which, in data set [1], the equilibrium dissociation constant (Kd) was 0.29 nM.

For the compound `CCCc1ccccc1OCC(O)CNC(C)C` (stereo not shown) [^3H Dihydroaplenolol, Dihydroaplenolol], the Kd at Adrenergic β is 0.5 nM.

In the case of `NCCc1c[nH]c2ccc(O)cc12` [^3H Serotonin (5-HT) Trifluoroacetate, Serotonin (5-HT) Trifluoroacetate], in data set [2], the equilibrium dissociation constant (Kd) was 0.61 nM.
